The values that follow come from patent US20190135747A1, “INDOLE AND INDAZOLE CYANOCINNAMATE COMPOUNDS AND THERAPEUTIC USES THEREOF” (Regents of the University of Minnesota, priority 2016, published 2019).

Format in all cases: cell-based
For experiment [1], the system named is MDA-MB-231 (MCT4 expressing human triple negative breast cancer cell line). The experiment can be described thus: MTT in vitro cytotoxicity assay, MDA-MB-231. Particulars: MDA-MB-231 cells. The protocol: (§1) Cell line MDA-MB-231 (MCT4 expressing human triple negative breast cancer cell line), cell line MCF-7 (MCT1 expressing estrogen receptor positive human breast cancer cell line), and cell line 4T1 (MCT1 expressing metastatic murine breast cancer cell line) were used for testing the in vitro cytotoxicity of compounds 1-d, 2, and 3 using the MTT assay available from ThermoFisher Scientific. In addition, Compounds 1-d, 2, and 3 were also evaluated for MCT1 inhibition activity in RBE4 (MCT1 expressing rat brain endothelial 4 cell line) and MCT4 inhibition activity in MDA-MB-231 cell lines by measuring the IC50 values using the MCT lactate inhibition assays (Gurrapu S, Jonnalagadda S K, Alam M A, Nelson G L, Sneve M G, Drewes L R, Venkatram R. Mereddy. Monocarboxylate transporter 1 inhibitors as potential anti-cancer agents. ACS. Med. Chem. Lett., 2015, 6, 558-561.).

Experiment [2] has as its system MCF-7 (MCT1 expressing estrogen receptor positive human breast cancer cell line). The experiment can be described thus: MTT in vitro cytotoxicity assay, MCF-7. Particulars: MCF7, MCF-7 cells. The protocol: as §1
For a further experiment, the target named is T1, MCT1 (Rattus norvegicus, UniProt P53987).
T1 construct: endogenous in cells; host or cells: RBE4 rat brain endothelial cells
T1 sequence (P53987 1-494): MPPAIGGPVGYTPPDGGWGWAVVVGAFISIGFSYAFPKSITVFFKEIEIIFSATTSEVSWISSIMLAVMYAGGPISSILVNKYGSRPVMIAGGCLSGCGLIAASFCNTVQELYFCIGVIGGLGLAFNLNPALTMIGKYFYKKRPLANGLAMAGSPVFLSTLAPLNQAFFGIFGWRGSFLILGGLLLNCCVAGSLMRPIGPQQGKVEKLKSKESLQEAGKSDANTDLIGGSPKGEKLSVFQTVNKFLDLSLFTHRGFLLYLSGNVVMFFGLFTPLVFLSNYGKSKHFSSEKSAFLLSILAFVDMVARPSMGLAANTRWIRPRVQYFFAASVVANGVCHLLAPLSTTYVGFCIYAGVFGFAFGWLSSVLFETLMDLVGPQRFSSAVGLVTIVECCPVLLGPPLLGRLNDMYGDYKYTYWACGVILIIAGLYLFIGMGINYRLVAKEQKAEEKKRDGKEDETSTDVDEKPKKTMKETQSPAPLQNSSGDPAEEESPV
T1 sequence (P26453 140-388 partner limits assumed): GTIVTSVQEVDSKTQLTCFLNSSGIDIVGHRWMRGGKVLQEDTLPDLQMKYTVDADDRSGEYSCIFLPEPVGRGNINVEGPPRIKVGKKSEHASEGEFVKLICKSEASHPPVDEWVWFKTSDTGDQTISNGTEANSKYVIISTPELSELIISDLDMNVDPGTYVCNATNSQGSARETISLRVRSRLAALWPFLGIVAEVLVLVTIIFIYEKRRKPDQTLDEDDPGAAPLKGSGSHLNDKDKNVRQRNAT
In words: MCT lactate inhibition assay, MCT1 in RBE4. To be noted: RBE4 rat brain endothelial cells. On the procedure:
as §1

For experiment [3], the system named is 4T1 (MCT1 expressing metastatic murine breast cancer cell line). In words: MTT in vitro cytotoxicity assay, 4T1. To be noted: Mus musculus, 4T1 cells. The protocol:
as §1

A further experiment concerns the target T2, MCT4 (Homo sapiens, UniProt O15427).
T2 construct: Cell line MDA-MB-231 (MCT4 expressing human triple negative breast cancer cell line); endogenous in cells; host or cells: MDA-MB-231 human triple negative breast cancer cells
T2 sequence (O15427 2-465 limits assumed): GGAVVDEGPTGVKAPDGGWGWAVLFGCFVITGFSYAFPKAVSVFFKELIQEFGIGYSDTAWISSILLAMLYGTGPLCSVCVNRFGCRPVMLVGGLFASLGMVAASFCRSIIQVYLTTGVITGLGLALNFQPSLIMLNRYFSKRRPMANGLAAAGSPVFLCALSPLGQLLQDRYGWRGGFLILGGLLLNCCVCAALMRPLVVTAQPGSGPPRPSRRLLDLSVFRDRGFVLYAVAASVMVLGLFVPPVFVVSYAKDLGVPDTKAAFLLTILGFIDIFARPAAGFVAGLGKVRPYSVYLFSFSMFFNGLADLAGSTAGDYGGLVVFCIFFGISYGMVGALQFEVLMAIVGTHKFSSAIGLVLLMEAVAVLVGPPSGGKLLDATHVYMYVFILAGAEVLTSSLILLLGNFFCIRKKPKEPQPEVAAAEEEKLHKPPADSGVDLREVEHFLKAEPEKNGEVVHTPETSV
T2 sequence (P35613 140-385 partner limits assumed): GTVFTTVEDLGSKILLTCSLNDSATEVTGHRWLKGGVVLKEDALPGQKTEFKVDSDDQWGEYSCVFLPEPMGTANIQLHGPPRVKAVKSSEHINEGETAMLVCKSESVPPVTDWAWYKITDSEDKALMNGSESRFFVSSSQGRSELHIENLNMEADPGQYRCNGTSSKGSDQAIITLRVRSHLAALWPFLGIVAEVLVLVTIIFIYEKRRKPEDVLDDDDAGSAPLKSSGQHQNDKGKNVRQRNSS
In words: MCT lactate inhibition assay, MCT4 in MDA-MB-231. Particulars: MDA-MB-231 cells. The protocol:
as §1

Structures are written as SMILES. A value given as a limit tells only on which side of the number the result lay.

With `N#C/C(=C\c1cn(-c2ccc(NC(=O)Nc3ccc(Cl)c(C(F)(F)F)c3)cc2)c2ccccc12)C(=O)O` [Compound 2], the IC50 in experiment [1] was determined as 88.1 ± 17.2 µM; in experiment [2], 41.6 ± 20.8 µM; against MCT1 it was 0.47 ± 0.05 µM; in experiment [3], 76.5 ± 4.86 µM; on MCT4, 0.57 ± 0.05 µM.
In the case of `CN(C)c1ccc(-n2cc(/C=C(\C#N)C(=O)O)c3ccccc32)cc1` [Compound 1-d], the 50% inhibitory concentration (IC50) in experiment [1] was above 250 µM; in experiment [2], above 250 µM; against MCT1, 0.07 ± 0.02 µM; in experiment [3] it was 65.4 ± 4.26 µM; against MCT4, 0.02 ± 0.01 µM.
In the case of `N#C/C(=C\c1cn(-c2ccc(NC(=O)c3ccc(NC(=O)Nc4ccc(Cl)c(C(F)(F)F)c4)cc3)cc2)c2ccccc12)C(=O)O` [Compound 3], the IC50 in experiment [1] is above 250 µM; in experiment [2] it was above 250 µM; against MCT1 it was 0.11 µM; in experiment [3] it was above 250 µM; on MCT4 it was 0.14 ± 0.04 µM.
